Values quoted from earlier work, collected in US6362158B1, “Multi-phase clear fabric softening composition” (Colgate-Palmolive Co., priority 2000, dated 2002).
Values joined by “and” are separate entries in the source; they are usually repeats but may differ in a detail not shown here. Equal entries are not always repeated.

conditions: solvent; logarithm to base 10 of P

SMILES	log P (octanol/water partition coefficient)
OCCCCO [1-4 Butanediol]	(log P = −1.3)
CCCOC(C)COC(C)CO (centres unmarked) [DPnP, dipropylene glycol n-propyl ether]	0.99)^2
CCCCCCCCCCO [Decanol]	3.32)
CCCCCCCCO [Octanol]	3.15)
CCCCCO [Pentanol]	1.3
CCCCOC(C)COC(C)COC(C)CO (centres unmarked) [TPnB, tripropylene glycol n-butyl ether]	1.896 and 1.9
CC(C)C(O)C(C)(C)CO (centres unmarked) [Trimethyl Pentanediol]	1.24

same assay, conditions: solvent; logarithm to base 10 of P; listed as dipropylene glycol n-propyl ether

SMILES	log P (octanol/water partition coefficient)
CCCOC(C)COC(C)CO (centres unmarked) [DPnP, dipropylene glycol n-propyl ether]	0.994
